Measurements taken from patent US20230338310A1, “ANTI-VIRAL THERAPY” (priority 2020, published 2023).
≈ marks a conversion by molar mass, not a printed value. Entries after “also recorded” stand apart in the source; their conditions may differ.

Assays:
hCoV 229E [1] = experiment: Immunoperoxidase assay (TCID50/pfu) and microscopic examination of hCoV 229E-infected A549 lung epithelial cells; format: cell-based, human coronavirus 229E (ATCC VR/740) in human A549 cells
hCoV 229E [2] = experiment: Immunoperoxidase assay (TCID50/pfu) and microscopic examination of hCoV 229E-infected MRC-5 lung fibroblast cells; format: cell-based, human coronavirus 229E (ATCC VR/740) in human MRC-5 cells; settings: MRC-5 cells
IL-6 = IL-6 response of A549 airway epithelial cells infected with human coronavirus 229E (IL-6 Duoset immunoassay); format: cell-based; settings: 10^3 dilution of stock HCoV 229E, single doses of 2 or 10 mg/L, 20 h at 37° C., one-way ANOVA and Tukey
IFNβ = IFNβ response of A549 airway epithelial cells infected with human coronavirus 229E (IFN Beta Quantikine kit); format: cell-based; settings: 10^3 dilution of stock HCoV 229E, single dose of 10 mg/L, 20 h at 37° C., none detected with virus alone
glycine decarboxylase = target: T1, glycine decarboxylase (Homo sapiens, UniProt P23378); experiment: Glycine utilisation by MRC-5 fibroblasts (fluorometric glycine assay of supernatants); format: cell-based; settings: 10 mg/L cysteamine, 4 h, glycine 300 μM, insulin 10 mg/L
T1 construct: endogenous in cells; host or cells: MRC-5 airway fibroblast cells
T1 sequence (P23378 36-1020): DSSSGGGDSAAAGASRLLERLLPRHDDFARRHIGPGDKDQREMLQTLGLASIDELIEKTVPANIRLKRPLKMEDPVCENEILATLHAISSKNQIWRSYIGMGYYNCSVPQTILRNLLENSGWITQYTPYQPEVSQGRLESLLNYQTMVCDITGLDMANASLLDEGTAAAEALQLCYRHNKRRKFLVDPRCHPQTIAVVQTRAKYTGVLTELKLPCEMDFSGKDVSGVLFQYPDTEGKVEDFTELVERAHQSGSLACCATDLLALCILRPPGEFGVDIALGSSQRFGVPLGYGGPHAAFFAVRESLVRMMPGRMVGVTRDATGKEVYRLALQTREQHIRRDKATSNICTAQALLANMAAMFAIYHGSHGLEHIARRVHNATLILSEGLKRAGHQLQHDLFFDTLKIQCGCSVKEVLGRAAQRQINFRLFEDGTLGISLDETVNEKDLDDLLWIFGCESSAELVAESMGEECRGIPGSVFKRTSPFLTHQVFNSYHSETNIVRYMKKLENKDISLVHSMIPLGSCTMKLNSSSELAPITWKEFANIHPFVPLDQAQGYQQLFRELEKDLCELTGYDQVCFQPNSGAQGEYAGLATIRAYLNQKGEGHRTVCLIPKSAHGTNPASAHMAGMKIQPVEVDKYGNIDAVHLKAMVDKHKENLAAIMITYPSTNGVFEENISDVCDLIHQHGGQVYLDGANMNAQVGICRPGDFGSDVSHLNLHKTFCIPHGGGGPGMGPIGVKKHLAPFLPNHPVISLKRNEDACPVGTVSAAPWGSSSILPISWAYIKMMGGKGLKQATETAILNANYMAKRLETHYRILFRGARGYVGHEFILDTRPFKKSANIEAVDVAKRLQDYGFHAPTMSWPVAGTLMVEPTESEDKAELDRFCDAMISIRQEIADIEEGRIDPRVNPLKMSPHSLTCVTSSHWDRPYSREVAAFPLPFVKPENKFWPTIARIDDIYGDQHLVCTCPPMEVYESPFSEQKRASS
Description: MRC-5 airway fibroblast cells were grown to 90% confluence in 2×12-well plates in EMEM+10% FBS. Cell culture media was replaced with:
Plate 1 • 1. 3×1 ml media alone (EMEM+10% FBS) • 2. 3×1 ml media+insulin (10 mg/L) • 3. 3×1 ml media+added glycine (300 μM) • 4. 3×1 ml media+glycine+insulin
As above, but with the addition of cysteamine to a final concentration of 10 mg/L Cells were then incubated at 37° C. and 5% C02 for 4 h. After incubation cell supernatants were harvested and transferred to labelled cryotubes and stored at −80° C. prior to assessment of glycine content. Insulin strongly stimulates glycine utilisation via glycine decarboxylase.
The supernatants were thawed prior to determining the glycine concentration using the fluorometric glycine assay kit from Abcam (Ab211100).
Manufacturer's instructions were followed and fluorometric assessment of glycine concentration in supernatants and standards was performed on the Biotek Synergy plate reader using 96-well black-walled plates at 535/587 nm (ex/em).

hCoV 229E [3] = experiment: qPCR of hCoV 229E M protein gene copies in supernatant of infected A549 lung epithelial cells; format: cell-based, human coronavirus 229E in human A549 cells; settings: 1 or 2 mg/L daily until 5th day, virus dilutions 10^-3 to 10^-5
Description: The effect of treatment of coronavirus-infected pulmonary cells with cysteamine was studied using A549 (sample obtained from deposit, deposited under ATCC CCL-185) being a human lung epithelial cell line. Prior to viral challenge A549 cells were grown at 37° C. in 5% CO2 atmosphere in growth media F-12 with Kaighn's modification+10% FBS +pen-strep [F-12K]) to 70-80% confluency in F12-K in tissue-culture-treated 96-well plates. Immediately prior to viral challenge, cells were washed in Hanks balanced salt solution and media was replaced with 100 μl challenge medium per well (F-12K) which contained 1% serum. […] Quantitative (real-time) polymerase chain reaction (qPCR) was carried out using PrecisionPLUS qPCR Master Mix (PrimerDesign) and forward and reverse oligonucleotides (229E Sense & 229E Antisense) specific to the hCoV 229E M protein gene. Amplification was carried out using a MiniOpticon Real-Time PCR system (Bio-Rad) and data was analysed using Opticon Monitor software (Bio-Rad). Analysed samples had been exposed to 10^−3 (1.12×10^12 pfu/ml), 10^−4 (1.12×10^11 pfu/ml) and 10^−5 (1.12×10^10 pfu/ml) of hCoV 229E and conducted from quadruplicate technical replicates. The number of copies of the 229E M protein gene were determined from a standard curve containing known number of copies of the 229E M protein gene.

[4] = tested on: SARS-CoV-2 (SARS-CoV-2-CVR-Gla-1); experiment: SARS-CoV-2 cytopathology (CPE) assay in Vero E6 MESO cells; format: cell-based
[5] = 14 days of cysteamine therapy adjunct to standard of care therapy; cited from earlier work
[6] = 2 mg/L daily for 5 days, all virus concentrations of the study

With `NCCS` [cysteamine, 2-Aminoethanethiol] the “pfu/ml in wells infected with hCoV 229E” value (hCoV 229E [1]; 1 mg/L cysteamine once a day for 5 days (untreated control 2.21 × 10^14/ml)) was 3.94 × 10^15/ml pfu/ml, the “viral load (pfu/ml) relative to control without cysteamine” value (hCoV 229E [1]; 2 mg/L) was “can reduce viral load” and the “pfu/ml in wells infected with hCoV 229E” value (hCoV 229E [1]; 2 mg/L cysteamine once a day for 5 days (untreated control 2.21 × 10^14/ml)) was 7 × 10^9/ml pfu/ml. The “protection against infection with hCoV 229E” value (hCoV 229E [1]; [6]) was “confer protection against infection”, the “viral load (pfu/ml) relative to control without cysteamine” value (hCoV 229E [2]; 2 mg/L) was “can reduce viral load” and the “protection against infection with hCoV 229E” value (hCoV 229E [2]; [6]) was “confer protection against infection”. For the same molecule, the “cell monolayer integrity by microscopic examination” value (hCoV 229E [2]; day 4, 2 mg/L cysteamine, untreated cells destroyed at 10^-4 to 10^-7 viral dilution) was “not seen at all in any of the cysteamine treated cells; also recorded: visible intact monolayer”, the “IL-6 secretion compared with viral infection alone” value (IL-6) was “significantly reduced IL-6 secretion” and the IFNβ response (IFNβ) was “IFNβ is detected”. The “insulin-driven utilisation of exogenous glycine” value (glycine decarboxylase) was “blocked”, the “viral load as number of copies of the 229E M protein gene” value (hCoV 229E [3]) was “reduces viral load” and the IC50 ([4]; Severe acute respiratory syndrome coronavirus 2, Vero C1008, 72 h, read-out: IC50 (CPE induced by SARS-CoV-2)) was 21.4 µg/mL (≈ 277 µM). The “CPE (Cytopathology) induced by SARS-CoV-2” value ([4]; Vero E6 MESO cells) was “reduced the CPE”, the “protection of the cell monolayer from SARS-CoV-2 CPE” value ([4]; Vero E6 MESO cells, 128 mg/L, 72 hours post-infection and later) was “almost complete protection” and the “protection of the cell monolayer from SARS-CoV-2 CPE” value ([4]; Vero E6 MESO cells, therapeutically-achievable doses, 72 hours post-infection) was “modest”. For the same molecule, the “CRP levels versus SOCT alone” value [5] was “significantly reduced” and the “WBC levels versus SOCT alone” value [5] was “significantly reduced”.
